Measurements from PubChem BioAssay AID1259407 (Chemical Carcinogenesis Research Information System (CCRIS), 2018).
The source made the active and inactive calls. How the calls were made is not given here.

Tested on: CCRIS mutagenicity, Ames/micronucleus/aberration tests
Assay: CCRIS mutagenicity studies
[1] = Test System: AMES SALMONELLA TYPHIMURIUM, Strain/Indicator: TA98, Metabolic Activation: NONE, Method: STANDARD PLATE
[2] = Test System: AMES SALMONELLA TYPHIMURIUM, Strain/Indicator: TA100, Metabolic Activation: NONE, Method: STANDARD PLATE
[3] = Test System: AMES SALMONELLA TYPHIMURIUM, Strain/Indicator: TA1535, Metabolic Activation: NONE, Method: STANDARD PLATE
[4] = Test System: AMES SALMONELLA TYPHIMURIUM, Strain/Indicator: TA1537, Metabolic Activation: NONE, Method: STANDARD PLATE

Measured: mutagenic call

CNC(=O)Oc1ccc2c(c1)[C@]1(C)CCN(C)[C@@H]1N2C
inactive: Test System: AMES SALMONELLA TYPHIMURIUM, Strain/Indicator: TA97, Metabolic Activation: LIVER, S-9 (10%), Method: STANDARD PLATE inactive; negative | Test System: AMES SALMONELLA TYPHIMURIUM, Strain/Indicator: TA97, Metabolic Activation: NONE, Method: STANDARD PLATE inactive; negative | Test System: AMES SALMONELLA TYPHIMURIUM, Strain/Indicator: TA97, Metabolic Activation: S-9, Method: STANDARD PLATE inactive; negative | Test System: AMES SALMONELLA TYPHIMURIUM, Strain/Indicator: TA98, Metabolic Activation: LIVER, S-9 (10%), Method: STANDARD PLATE inactive; negative | [1] inactive; negative | Test System: AMES SALMONELLA TYPHIMURIUM, Strain/Indicator: TA98, Metabolic Activation: S-9, Method: STANDARD PLATE inactive; negative | Test System: AMES SALMONELLA TYPHIMURIUM, Strain/Indicator: TA100, Metabolic Activation: LIVER, S-9 (10%), Method: STANDARD PLATE inactive; negative | [2] inactive; negative | Test System: AMES SALMONELLA TYPHIMURIUM, Strain/Indicator: TA100, Metabolic Activation: S-9, Method: STANDARD PLATE inactive; negative | Test System: AMES SALMONELLA TYPHIMURIUM, Strain/Indicator: TA102, Metabolic Activation: NONE, Method: STANDARD PLATE inactive; negative | Test System: AMES SALMONELLA TYPHIMURIUM, Strain/Indicator: TA102, Metabolic Activation: S-9, Method: STANDARD PLATE inactive; negative | Test System: AMES SALMONELLA TYPHIMURIUM, Strain/Indicator: TA104, Metabolic Activation: LIVER, S-9 (10%), Method: STANDARD PLATE inactive; negative | Test System: AMES SALMONELLA TYPHIMURIUM, Strain/Indicator: TA104, Metabolic Activation: NONE, Method: STANDARD PLATE inactive; negative | Test System: AMES SALMONELLA TYPHIMURIUM, Strain/Indicator: TA104, Metabolic Activation: S-9, Method: STANDARD PLATE inactive; negative | Test System: AMES SALMONELLA TYPHIMURIUM, Strain/Indicator: TA1535, Metabolic Activation: LIVER, S-9 (10%), Method: STANDARD PLATE inactive; negative | [3] inactive; negative | Test System: AMES SALMONELLA TYPHIMURIUM, Strain/Indicator: TA1535, Metabolic Activation: S-9, Method: STANDARD PLATE inactive; negative | Test System: AMES SALMONELLA TYPHIMURIUM, Strain/Indicator: TA1537, Metabolic Activation: LIVER, S-9 (10%), Method: STANDARD PLATE inactive; negative | [4] inactive; negative | Test System: AMES SALMONELLA TYPHIMURIUM, Strain/Indicator: TA1537, Metabolic Activation: S-9, Method: STANDARD PLATE inactive; negative | Test System: AMES SALMONELLA TYPHIMURIUM, Strain/Indicator: TA1538, Metabolic Activation: LIVER, S-9 (10%), Method: STANDARD PLATE inactive; negative | Test System: AMES SALMONELLA TYPHIMURIUM, Strain/Indicator: TA1538, Metabolic Activation: NONE, Method: STANDARD PLATE inactive; negative | Test System: AMES SALMONELLA TYPHIMURIUM, Strain/Indicator: TA1538, Metabolic Activation: S-9, Method: STANDARD PLATE inactive; negative

COC(=O)[C@H]1[C@H]2C[C@@H]3c4[nH]c5cc(OC)ccc5c4CCN3C[C@H]2C[C@@H](OC(=O)c2cc(OC)c(OC)c(OC)c2)[C@@H]1OC
inactive: End Point: IN VITRO CHROMOSOMAL ABERRATIONS, Test System: CHO CELLS, Metabolic Activation: NONE inactive; negative | Test System: AMES SALMONELLA TYPHIMURIUM, Strain/Indicator: TA97, Metabolic Activation: HAMSTER, LIVER, S-9, AROCLOR 1254 (10 OR 30%), Method: PREINCUBATION inactive; negative | Test System: AMES SALMONELLA TYPHIMURIUM, Strain/Indicator: TA97, Metabolic Activation: NONE, Method: PREINCUBATION inactive; negative | Test System: AMES SALMONELLA TYPHIMURIUM, Strain/Indicator: TA97, Metabolic Activation: RAT, LIVER, S-9, AROCLOR 1254 (10 OR 30%), Method: PREINCUBATION inactive; negative | Test System: AMES SALMONELLA TYPHIMURIUM, Strain/Indicator: TA98, Metabolic Activation: HAMSTER, LIVER, S-9, AROCLOR 1254 (10 OR 30%), Method: PREINCUBATION inactive; negative | Test System: AMES SALMONELLA TYPHIMURIUM, Strain/Indicator: TA98, Metabolic Activation: NONE, Method: PREINCUBATION inactive; negative | [1] inactive; negative | Test System: AMES SALMONELLA TYPHIMURIUM, Strain/Indicator: TA98, Metabolic Activation: RAT, LIVER, S-9, AROCLOR 1254 (10 OR 30%), Method: PREINCUBATION inactive; negative | Test System: AMES SALMONELLA TYPHIMURIUM, Strain/Indicator: TA98, Metabolic Activation: RAT, LIVER, S-9, AROCLOR 1254, Method: STANDARD PLATE inactive; negative | Test System: AMES SALMONELLA TYPHIMURIUM, Strain/Indicator: TA100, Metabolic Activation: HAMSTER, LIVER, S-9, AROCLOR 1254 (10 OR 30%), Method: PREINCUBATION inactive; negative | Test System: AMES SALMONELLA TYPHIMURIUM, Strain/Indicator: TA100, Metabolic Activation: NONE, Method: PREINCUBATION inactive; negative | [2] inactive; negative | Test System: AMES SALMONELLA TYPHIMURIUM, Strain/Indicator: TA100, Metabolic Activation: RAT, LIVER, S-9, AROCLOR 1254 (10%), Method: PREINCUBATION inactive; negative | Test System: AMES SALMONELLA TYPHIMURIUM, Strain/Indicator: TA100, Metabolic Activation: RAT, LIVER, S-9, AROCLOR 1254 (30%), Method: PREINCUBATION inactive; negative | Test System: AMES SALMONELLA TYPHIMURIUM, Strain/Indicator: TA100, Metabolic Activation: RAT, LIVER, S-9, AROCLOR 1254, Method: STANDARD PLATE inactive; negative | Test System: AMES SALMONELLA TYPHIMURIUM, Strain/Indicator: TA1535, Metabolic Activation: HAMSTER, LIVER, S-9, AROCLOR 1254 (10 OR 30%), Method: PREINCUBATION inactive; negative | Test System: AMES SALMONELLA TYPHIMURIUM, Strain/Indicator: TA1535, Metabolic Activation: NONE, Method: PREINCUBATION inactive; negative | [3] inactive; negative | Test System: AMES SALMONELLA TYPHIMURIUM, Strain/Indicator: TA1535, Metabolic Activation: RAT, LIVER, S-9, AROCLOR 1254 (10 OR 30%), Method: PREINCUBATION inactive; negative | Test System: AMES SALMONELLA TYPHIMURIUM, Strain/Indicator: TA1535, Metabolic Activation: RAT, LIVER, S-9, AROCLOR 1254, Method: STANDARD PLATE inactive; negative | [4] inactive; negative | Test System: AMES SALMONELLA TYPHIMURIUM, Strain/Indicator: TA1537, Metabolic Activation: RAT, LIVER, S-9, AROCLOR 1254, Method: STANDARD PLATE inactive; negative | Test System: E. COLI, Strain/Indicator: WP2 UVRA, Metabolic Activation: HAMSTER, LIVER, S-9, AROCLOR 1254, Method: STANDARD PLATE inactive; negative | Test System: E. COLI, Strain/Indicator: WP2 UVRA, Metabolic Activation: HAMSTER, LIVER, S-9, Method: STANDARD PLATE inactive; negative | Test System: E. COLI, Strain/Indicator: WP2 UVRA, Metabolic Activation: MOUSE, LIVER, S-9, AROCLOR 1254, Method: STANDARD PLATE inactive; negative | Test System: E. COLI, Strain/Indicator: WP2 UVRA, Metabolic Activation: MOUSE, LIVER, S-9, Method: STANDARD PLATE inactive; negative | Test System: E. COLI, Strain/Indicator: WP2 UVRA, Metabolic Activation: NONE, Method: STANDARD PLATE inactive; negative | Test System: E. COLI, Strain/Indicator: WP2 UVRA, Metabolic Activation: RAT, LIVER, S-9, AROCLOR 1254, Method: STANDARD PLATE inactive; negative | Test System: E. COLI, Strain/Indicator: WP2 UVRA, Metabolic Activation: RAT, LIVER, S-9, Method: STANDARD PLATE inactive; negative | Test System: UDS RAT HEPATOCYTES, Strain/Indicator: BROMODEOXYURIDINE INCORP, Metabolic Activation: NONE, Method: FLOW CYTOMETRIC ANALYSIS inactive; negative
